{"source": "patent US12540171B2", "about": "“Compositions and methods for treating ocular disease” (Asclepix Therapeutics, Inc., priority 2019, dated 2026)", "key": {"[1]": {"assay": "Drug levels in the retina after intravitreal injection, LC/MS/MS", "type": "in vivo, Dutch-Belted rabbits", "conditions": "225, 271, and 315 days after a single injection", "method": "The rabbits were then sacrificed at various time points, and the various ocular tissues were separated. The drug levels in the retina were measured by Liquid chromatography-mass spectrometry (LC/MS/MS). The drug levels were plotted as ng/g. The Kd for binding of AXT107 to its integrin targets is 1-2 nM."}, "[2]": {"assay": "Gel formation and persistence in the vitreous after intravitreal injection", "protocol": "In FIG. 3, AXT107 was injected into the vitreous of Dutch-Belted rabbits. […] The retina with the optic nerve is visible in the back of the eye.\nIn FIG. 7, AXT107 was injected into the vitreous of Dutch-Belted rabbits in a PK toxicology study."}}, "note": "No end group written: not given here.", "data": [{"sequence": "LRRFSTAPFAFIDINDVINF [AXT107]", "values": [{"measurement": "AXT107 level in the retina", "setting": "[1]", "value": "significant levels"}, {"measurement": "gels in the vitreous at necropsy, PK toxicology study", "setting": "[2]; Dutch-Belted rabbits, 6 Months after administration, all doses", "value": "visible in the vitreous at all doses"}, {"measurement": "effect of gel on the visual axis", "setting": "[2]; rabbit eye, after intravitreal injection", "value": "does not block the visual axis"}, {"measurement": "time the gel stays in place without breaking apart or migrating", "setting": "[2]; rabbit eye, doses of 100 μg, 250 μg, 500 μg, and 1000 μg", "value": 15, "unit": "months"}, {"measurement": "release of peptide from gel", "setting": "[2]; rabbit vitreous", "value": "released the peptide in a sustained manner"}]}]}
